Source: patent US6544985B2, “Dihydro-benzo [b][1,4]diazepin-2-one derivatives” (Hoffman-La Roche Inc., priority 2001, dated 2003)

| melting point | Compound |
| --- | --- |
| 246 °C (dec.) | O=C1CC(c2cccc(-n3nncc3CO)c2)=Nc2cc(N3CCCCC3)c(Cl)cc2N1 [Example 50, 8-Chloro-4-[3-(5-hydroxymethyl-[1,2,3]triazol-1-yl)-phenyl]-7-piperidin-1-yl-1,3-dihydro-benzo[b][1,4]diazepin-2-one] |
| 211 °C (dec.) | CN(C)c1cc2c(cc1C(F)(F)F)NC(=O)CC(c1cccc(-c3cc(CO)on3)c1)=N2 [Example 51, 7-Dimethylamino-4-[3-(5-hydroxymethyl-isoxazol-3-yl)-phenyl]-8-trifluoromethyl-1,3-dihydro-benzo[b][1,4]diazepin-2-one] |
| 160 °C | CN(C)c1cc2c(cc1C(F)(F)F)NC(=O)CC(c1cccc(-c3cc(CN4CCCC4)no3)c1)=N2 [Example 53, 7-Dimethylamino-4-[3-(3-pyrrolidin-1-ylmethyl-isoxazol-5-yl)-phenyl]-8-trifluoromethyl-1,3-dihydro-benzo[b][1,4]diazepin-2-one] |
| 160 °C | CN(C)Cc1cc(-c2cccc(C3=Nc4cc(N(C)C)c(C(F)(F)F)cc4NC(=O)C3)c2)on1 [Example 55, 7-Dimethylamino-4-[3-(3-dimethylaminomethyl-isoxazol-5-yl)-phenyl]-8-trifluoromethyl-1,3-dihydro-benzo[b][1,4]diazepin-2-one] |
| 278 to 279 °C | N#Cc1cc(C2=Nc3cc(N4CCCC4)c(F)cc3NC(=O)C2)ccn1 [Example 56, 4-(7-Fluoro-4-oxo-8-pyrrolidin-1-yl-4,5-dihydro-3H-benzo[b][1,4]diazepin-2-yl)-pyridine-2-carbonitrile] |
| 236 °C | Cc1cc(-c2cccc(C3=Nc4cc(N5CCCC5)c(F)cc4NC(=O)C3)c2)on1 [Example 57, 8-Fluoro-4-[3-(3-methyl-isoxazol-5-yl)-phenyl]-7-pyrrolidin-1-yl-1,3-dihydro-benzo[b][1,4]diazepin-2-one] |
| 184 to 185 °C | O=C1CC(c2cccc(-n3nncc3CO)c2)=Nc2cc(N3CCCC3)c(F)cc2N1 [Example 58, 8-Fluoro-4-[3-(5-hydroxymethyl-[1,2,3]triazol-1-yl)-phenyl]-7-pyrrolidin-1-yl-1,3-dihydro-benzo[b][1,4]diazepin-2-one] |
| 276 °C | N#Cc1cc(C2=Nc3cc(N4CCC4)c(Cl)cc3NC(=O)C2)ccn1 [Example 59, 4-(8-Azetidin-1-yl-7-chloro-4-oxo-4,5-dihydro-3H-benzo[b][1,4]diazepin-2-yl)-pyridine-2-carbonitrile] |
| 206 to 208 °C | O=C1CC(c2cccc(-c3cc(CO)on3)c2)=Nc2cc(N3CCCC3)c(C(F)(F)F)cc2N1 [Example 60, 4-[3-(5-Hydroxymethyl-isoxazol-3-yl)-phenyl]-7-pyrrolidin-1-yl-8-trifluoromethyl-1,3-dihydro-benzo[b][1,4]diazepin-2-one] |
| 241 °C | N#Cc1cc(C2=Nc3cc(N4CCC4)c(C(F)(F)F)cc3NC(=O)C2)ccn1 [Example 61, 4-(8-Azetidin-1-yl-4-oxo-7-trifluoromethyl-4,5-dihydro-3H-benzo[b][1,4]diazepin-2-yl)-pyridine-2-carbonitrile] |
| 239 °C (dec.) | Cc1cc(-c2cccc(C3=Nc4cc(N5CCC5)c(C(F)(F)F)cc4NC(=O)C3)c2)on1 [Example 62, 7-Azetidin-1-yl-4-[3-(3-methyl-isoxazol-5-yl)-phenyl]-8-trifluoromethyl-1,3-dihydro-benzo[b][1,4]diazepin-2-one] |
| 202 °C (dec.) | O=C1CC(c2cccc(-n3nncc3CO)c2)=Nc2cc(N3CCC3)c(C(F)(F)F)cc2N1 [Example 63, 7-Azetidin-1-yl-4-[3-(5-hydroxymethyl-[1,2,3]triazol-1-yl)-phenyl]-8-trifluoromethyl-1,3-dihydro-benzo[b][1,4]diazepin-2-one] |
| 176 °C | CN(C)c1cc2c(cc1C(F)(F)F)NC(=O)CC(c1cccc(-n3cccn3)c1)=N2 [Example 64, 7-Dimethylamino-4-(3-pyrazol-1-yl-phenyl)-8-trifluoromethyl-1,3-dihydro-benzo[b][1,4]diazepin-2-one] |
| 247 to 250 °C | CN(C)c1cc2c(cc1C(F)(F)F)NC(=O)CC(c1cccc(-n3cnnc3)c1)=N2 [Example 65, 7-Dimethylamino-4-(3-[1,2,4]triazol-4-yl-phenyl)-8-trifluoromethyl-1,3-dihydro-benzo[b][1,4]diazepin-2-one] |
| 203 to 205 °C | CN(C)c1cc2c(cc1C(F)(F)F)NC(=O)CC(c1cccc(-n3ccnc3)c1)=N2 [Example 66, 7-Dimethylamino-4-(3-imidazol-1-yl-phenyl)-8-trifluoromethyl-1,3-dihydro-benzo[b][1,4]diazepin-2-one] |
| 211 °C | CN(C)c1cc2c(cc1Cl)NC(=O)CC(c1cccc(-n3cc(CO)cn3)c1)=N2 [Example 67, 8-Chloro-7-dimethylamino-4-[3-(4-hydroxymethyl-pyrazol-1-yl)-phenyl]-1,3-dihydro-benzo[b][1,4]diazepin-2-one] |
| 175 °C | CN(C)c1cc2c(cc1C(F)(F)F)NC(=O)CC(c1cccc(-n3cc(CO)cn3)c1)=N2 [Example 68, 7-Dimethylamino-4-[3-(4-hydroxymethyl-pyrazol-1-yl)-phenyl]-8-trifluoromethyl-1,3-dihydro-benzo[b][1,4]diazepin-2-one] |
| 207 to 208 °C | Cc1noc(-c2cccc(C3=Nc4cc(N(C)C)c(C(F)(F)F)cc4NC(=O)C3)c2)c1CO [Example 69, 7-Dimethylamino-4-[3-(4-hydroxymethyl-3-methyl-isoxazol-5-yl)-phenyl]-8-trifluoromethyl-1,3-dihydro-benzo[b][1,4]diazepin-2-one] |
| 217 to 219 °C | CN(C)c1cc2c(cc1C(F)(F)F)NC(=O)CC(c1cccc(-c3nocc3CO)c1)=N2 [Example 70, 7-Dimethylamino-4-[3-(4-hydroxymethyl-isoxazol-3-yl)-phenyl]-8-trifluoromethyl-1,3-dihydro-benzo[b][1,4]diazepin-2-one] |
| 243 to 244 °C | CN(C)c1cc2c(cc1C(F)(F)F)NC(=O)CC(c1cccc(-c3c(CO)cnn3C)c1)=N2 [Example 72, 7-Dimethylamino-4-[3-(4-hydroxymethyl-2-methyl-2H-pyrazol-3-yl)-phenyl]-8-trifluoromethyl-1,3-dihydro-benzo[b][1,4]diazepin-2-one] |
| 239 to 241 °C | CN(C)c1cc2c(cc1Cl)NC(=O)CC(c1cccc(-n3cncn3)c1)=N2 [Example 73, 8-Chloro-7-dimethylamino-4-(3-[1,2,4]triazol-1-yl-phenyl)-1,3-dihydro-benzo[b][1,4]diazepin-2-one] |
| 228 to 230 °C | CN(C)c1cc2c(cc1C(F)(F)F)NC(=O)CC(c1cccc(-n3cncn3)c1)=N2 [Example 74, 7-Dimethylamino-4-(3-[1,2,4]triazol-1-yl-phenyl)-8-trifluoromethyl-1,3-dihydro-benzo[b][1,4]diazepin-2-one] |
| 224 to 227 °C | CN(C)c1cc2c(cc1C(F)(F)F)NC(=O)CC(c1cccc(C#N)c1)=N2 [Example 75, 3-(8-Dimethylamino-4-oxo-7-trifluoromethyl-4,5-dihydro-3H-benzo[b][1,4]diazepin-2-yl)-benzonitrile] |
